{"source": "patent US20260216344A1", "about": "“ALC1 Inhibitors and Synergy with PARPi” (Eisbach Bio GmbH, priority 2020, published 2026)", "tested_on": "PARP2", "test": "live-cell PARP-2 trapping assay (GFP-PARP2 at laser micro-irradiation sites)", "format": "cell-based, human", "conditions": "U2OS cells transfected with GFP-PARP2; veliparib 10 μM, talazoparib 100 nM; images 1 and 15 minutes after irradiation", "protocol": "U2OS cells were seeded onto 4-well Nunc Lab-Tek chambers (Thermo Fisher Scientific) in normal DMEM. Cells were cultured over night at 37° C. and transfected with a GFP-tagged PARP2 plasmid using Lipofectamine. 24 h after transfection, the cells were imaged using the Zeiss AxioObserver Z1 confocal spinning-disk microscope equipped with a sCMOS ORCA Flash 4.0 camera (Hamamatsu). Live-cell imaging experiments were performed with C-Apo 63× water immersion objective lens. During this time, the cells were maintained in Leibovitz's L-15 media (Gibco), supplemented with 10% FBS, at 37° C. in the absence of CO2. […] DNA damage was induced along a line of 88 pixels that is exposed for 400 msec with 20% laser power of a 355 nm laser operated through a single-point scanning head (UGA-42 firefly, Rapp OptoElectronics).\nThe accumulation of fluorophore-tagged proteins at laser micro-irradiation sites was followed for 15-30 minutes. […] The accumulation of fluorophore-tagged proteins at micro-irradiation sites was quantified using a custom-made macro in Fiji/ImageJ. The damage region of interest was selected, the mean fluorescent intensity of the nucleus was determined, and the background signal was subtracted. The recruitment was calculated via the following formula: (damage region (t)−background signal (t))/(nucleus intensity (t)−background (t))", "note": "“Also recorded” adds a separate entry of the source."}
{"compound": "Cn1ncnc1[C@H]1c2n[nH]c(=O)c3cc(F)cc(c23)N[C@@H]1c1ccc(F)cc1", "note": "[talazoparib]", "values": [{"measurement": "recruitment / retention of GFP-PARP2 at laser micro-irradiation damage sites", "result": "enhanced retention of GFP-tagged PARP2 at induced DNA lesions; also recorded: enhanced retention of PARP2 at induced damage sites"}]}
{"compound": "C[C@]1(c2nc3c(C(N)=O)cccc3[nH]2)CCCN1", "note": "[veliparib]", "values": [{"measurement": "recruitment / retention of GFP-PARP2 at laser micro-irradiation damage sites", "result": "overall less PARP2 recruitment to the DNA lesions; also recorded: less recruitment of PARP2 to the damage site"}]}
